Measurements as given in patent publication US20240208898A1, “ENAMINE N-OXIDES: SYNTHESIS AND APPLICATION TO HYPOXIA-RESPONSIVE PRODRUGS AND IMAGING AGENTS” (DANA-FARBER CANCER INSTITUTE, INC., priority 2021, published 2024).
Entries after “also recorded” stand apart in the source; their conditions may differ.

Tested on: BxPC-3 xenografts
Assay: Immunofluorescence tissue staining of tumor slices
Type: in vivo, mice
Experimental: All animal experiments were performed according to procedures and protocols approved by the Dana-Farber Cancer Institute Institutional Animal Care and Use Committee. Bx-PC3 cells were grown to confluency in antibiotic-free RPMI supplemented with 10% FBS, trypsinized, and washed three times with ice cold PBS (50 mL). Cells were resuspended in PBS at a concentration of 1.0×10^7 cells per 100 μL. 8-week old, female, homozygous NU/J mice (Jackson Laboratory) were subcutaneously injected with 1.0×10^7 Bx-PC3 cells over the right hind flank under isoflurane anesthesia. Experiments were performed when tumors reached 1000 mm^3 in size.
Mice were intraperitoneally injected with a 200 μL bolus of 25.8 mM pimonidazole and enamine N-oxide probe in 0.9% saline. Two min prior to sacrifice, mice were intravenously injected with 15 mg/kg Hoechst 33342 in 100 μL of PBS. After 1 hour, mice were sacrificed by cervical dislocation under isoflurane anesthesia. Tumors were resected and fixed in 4% paraformaldehyde in PBS for 24 hours at 4° C. with shaking. Tumors were then stored in 70% ethanol/water and submitted to the Rodent Histopathology Core at the Dana-Farber/Harvard Cancer Center for paraffin sectioning and H&E staining on glass slides. Paraffin embedded slices on glass slides were first rehydrated by successively immersing in xylenes twice for 10 minutes, 100% ethanol twice for 10 minutes, 95% ethanol/water once for 5 minutes, 70% ethanol/water for 5 minutes, 50% ethanol/water for 5 minutes, water three times for 20 seconds, and ice cold PBS+0.3% Triton X-100 once for 10 minutes. For slices to be stained by HIF1α and CD31, slides were then incubated at 90° C. in 10 mM citrate, pH 6.0 for 15 minutes. After 15 minutes, the solution was removed from heat and allowed to cool to room temperature. […] Slices were then imaged using a widefield fluorescence inverted microscope (Nikon Ti Eclipse) at the Dana-Farber Confocal and Light Microscopy Core according to the settings listed in the “General biological instrumentation” section.

| SMILES | localization in tumor tissue slices vs CD31 endothelial cell marker (intraperitoneal, CD31, DAPI) | localization in tumor tissue slices vs hypoxia markers (intraperitoneal, markers GLUT1, HIF1α, CAIX, pimonidazole) | co-localization with pimonidazole in tumor tissue slices (tumor of mouse imaged by NIR probe, CuAAC fluorescent labeling) |
| --- | --- | --- | --- |
| C#CCCCCC(F)/C=C/[N+]([O-])(CC)CC (stereo not drawn) [probe 39, (E)-N,N-diethyl-3-fluoronon-1-en-8-yn-1-amine oxide] | vasculature is primarily localized in regions distal to regions that are labeled well by enamine N-oxide 39 staining | strong correlation; also recorded: co-localized with the GLUT1 and pimonidazole hypoxia markers |  |
| C#CCN(CCCCCC(F)/C=C/[N+]([O-])(CC)CC)C(=O)c1ccc(C2=c3cc4c(cc3[Si](C)(C)c3cc5c(cc32)CCN5C)=[N+](C)CC4)c(C)c1 (stereo not drawn) [probe 42, Si700-enamine N-oxide] |  |  | robust co-localization |
